The values that follow come from patent publication US4594238A (Regents of University of Minnesota, priority 1984, dated 1986).

For data set [1] the following is noted: cited from earlier work; for Bone marrow toxicity: in vivo.
A short description of data set [2]: Urinary excretion of free and conjugated DDTC. Format: in vivo, rats. To be noted: combination of DDTC and acetazolamide, even when NaDDTC dose reduced by 80%. From the text: Intravenous administration was explored in an attempt to deliver larger quantities of free DDTC anion to the likely site of toxicity in the renal tubule; urinary excretion of DDTC was monitored as a means of estimating changes in tubular levels of free DDTC. The standard assay for DDTC anion utilizes a spectrophotometric determination following reaction with cupric ion to form the colored Cu(DDTC)2 complex. Unfortunately, the affinity of cupric ion for sulfur ligands is such that this metal ion will catalyze the decomposition of the DDTC glucuronide and therefore will not discriminate between free and conjugated DDTC. Ferric ion does react selectively with the free ligand, thereby providing a convenient assay for both free and total DDTC in urine.
Excretion of free and conjugated NaDDTC in the urine of rats was measured as follows. NaDDTC was administered in selected doses via intraperitoneal or intravenous injection. Rats were then placed in metabolic cages and urine was collected and analyzed at 30 minute intervals. Urine samples (0.1-5.0 ml) were added to 2 ml of a solution containing ferric nitrate (20 mM) and sodium citrate (200 mM). The dark Fe (DDTC)3 complex was extracted into chloroform (4 ml) by vortexing for 5 minutes. The mixture was chilled, centrifuged for 1 minute, and the chloroform layer separated. To this chloroform solution was added saturated aqueous cupric sulfate (2 ml), and the mixture was vortexed for 5 minutes, chilled, and centrifuged for 1 minute. The chloroform solution was separated and the Cu(DDTC)2absorbance measured at 435 nm. Free DDTC was determined by comparison of absorbance to a standard curve. Total DDTC was determined by addition of 0. 05-1.0 ml of urine to 3 ml of saturated cupric sulfate followed by incubation at 45° for 30 minutes. The resulting Cu(DDTC)2 complex was extracted into chloroform and analyzed as described above. DDTC-glucuronide excretion was determined by subtraction of free from total DDTC.

For data set [3] the following is noted: cited from earlier work; for Benefit when given before platinum(II): given before the platinum (II); for Binding to plasma platinum: in vivo.
For data set [4] the following is noted: polar solvents; cited from earlier work.
Data set [5] in a line: Protection of rats against DDP toxicity by disulfiram via stomach tube, Example 1. Particulars: disulfiram 2 g/kg via stomach tube 30 minutes before and 30 minutes after DDP. Format: in vivo, Male F344 (Fischer) rats. On the procedure:
Male F344 (Fischer) rats (average weight, 150 g) were obtained from the Charles River Breeding Laboratory. They were divided into groups of four rats, placed in methacrylate cages, and given National Institute of Health chow for rodents and water ad lib, for 7 days. Average weight of the rats was 180 g (range, 160-200 g) when injected.
Tetraethylthiuram disulfide (disulfiram) was obtained from Sigma Chemical Co., St. Louis MO. Sodium DDTC was prepared according to the procedure of Klopper and van der Kerk, Rec. Trav. Chim. 70:917 (1951); immediately prior to injection, it was dissolved in sterile water at a concentration of 100 mg/ml. Sodium bicarbonate was prepared in sterile water at a concentration of 50 mg/ml. All injections were carried out under brief ether anesthesia.
Otherwise, weight and BUN were determined at 5 days after injection, reportedly the time of maximal observed toxicity. Evidence of gastrointestinal toxicity was obtained qualitatively by noting the presence or absence of diarrhea 3-5 days after injection.
Disulfiram was administered to two groups of rats in lieu of NaDDTC, as described subsequently.

For “chlorohydroxy-isopropylamineplatinum [CHIP]”, in data set [1] (compared to first generation agents), the Kidney toxicity entry was “low in kidney toxicity”. In addition, the Bone marrow toxicity result in data set [1] is recorded as “high in bone marrow toxicity”.

With `CC(=O)Nc1nnc(S(N)(=O)=O)s1` [acetazolamide, reference compound], the “Renal excretion of DDTC with acetazolamide” value in data set [2] is “significant increases in renal excretion of DDTC”.

As to `N.N.O=C([O-])C1(C(=O)[O-])CCC1.[Pt+2]` [CBDCA], the Bone marrow toxicity result in data set [1] is recorded as “increased bone marrow toxicity”.

As to `NCC1(CN)CCCCC1.O=S(=O)([O-])[O-].[Pt+2]` [TNO-6], the Bone marrow toxicity entry in data set [1] is “increased bone marrow toxicity”.

For the molecule `N[C@@H](CS)C(=O)O` [cysteine], in data set [3], the “Benefit when given before platinum(II)” value was “Some benefit was reported” and the “Binding to plasma platinum” value is “may have the potential to bind to plasma platinum”.

Take `CC(C)(S)[C@@H](N)C(=O)O` [penicillamine]: in data set [3], the “Benefit when given before platinum(II)” value is reported as “Some benefit was reported” and the “Binding to plasma platinum” value is recorded as “may have the potential to bind to plasma platinum”.

In the case of `CCN(CC)C(=S)SSC(=S)N(CC)CC` [disulfiram, Tetraethylthiuram disulfide], in data set [4], the “Solubility in polar solvents” value is “relatively low solubility, particularly in polar solvents”. In addition, in data set [5], the BUN in survivors fell in the range of 55 to 180 mg/dL; the “Necropsy, intestine” value is on record as “grossly hemorrhagic fluid-filled intestine”; the “Weight loss and BUN levels in the survivors” value was “highly variable”. The “Animals that died before day 5” value in data set [5] (in each group) was “Fifty”.
